From patent US20020028938A1, “Prostaglandin endoperoxide H synthase biosynthesis inhibitors” (priority 1997, published 2002) come the findings set out here.

The nature of data set [1]: Pharmacokinetic profile (plasma concentration, half life, AUC). It is filed as in vivo, Rat.
For the next data set, the target named is T1, Human whole blood Cox-2 (Homo sapiens, UniProt P35354).
T1 construct: from tissue; host or cells: heparinised human whole blood stimulated with E. coli LPS
T1 sequence (P35354 18-604): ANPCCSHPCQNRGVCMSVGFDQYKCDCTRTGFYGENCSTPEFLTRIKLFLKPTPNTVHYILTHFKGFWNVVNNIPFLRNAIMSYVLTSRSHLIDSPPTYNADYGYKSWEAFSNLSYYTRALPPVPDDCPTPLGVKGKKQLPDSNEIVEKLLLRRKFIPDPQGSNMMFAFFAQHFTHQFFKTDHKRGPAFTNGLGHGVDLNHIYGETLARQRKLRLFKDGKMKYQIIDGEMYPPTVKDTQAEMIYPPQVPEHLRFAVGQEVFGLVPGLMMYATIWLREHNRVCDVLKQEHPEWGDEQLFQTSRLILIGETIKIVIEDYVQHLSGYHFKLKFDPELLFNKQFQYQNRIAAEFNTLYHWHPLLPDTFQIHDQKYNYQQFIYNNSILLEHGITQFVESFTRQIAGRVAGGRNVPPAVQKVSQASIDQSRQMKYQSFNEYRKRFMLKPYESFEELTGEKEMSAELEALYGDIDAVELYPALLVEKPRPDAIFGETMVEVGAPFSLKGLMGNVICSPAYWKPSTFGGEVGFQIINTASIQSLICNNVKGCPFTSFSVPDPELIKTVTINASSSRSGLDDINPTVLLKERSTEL
The data set is described as follows: Human whole blood assay Cyclooxygenase-2. It is filed as cell-based. As for the experimental part: Heparin anticoagulated blood was incubated with drugs dissolved in DMSO. The samples are incubated at 37 degrees Celsius for 15 minutes. E. coli lipopolysaccaride (LPS) 5 μg/ml dded and the samples incubated for 5 hours. The reaction was stopped with the addition of EGTA and cold methanol (50% final concentration). After 18 hours at −70 degree Celsius, the plates were centrifuged and supernatants analyzed for TXB2.

Data set [2] deals with carrageenan induced paw edema. As to the kind of experiment: Carrageenan induced paw edema (CPE) in rats. It is filed as in vivo. The following applies: oral, rat. The method in brief:
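Male Sprague-Dawley rats (170–190 g) dosed orally in PEG 400, 1 h before subplantar 0.1 ml 1% lambda carrageenan in right hindpaw. Plethysmographic paw volume at 0 and 3 h; edema as difference, % inhibition versus control mean (±SEM), Dunnett's test, ED50 by linear regression.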
(In the carrageenan paw model, swelling and tenderness develop within hours.)

Data set [3] addresses T2, Human Whole Platelet Cyclooxygenase-1 (Homo sapiens, UniProt P23219).
T2 construct: from tissue; host or cells: human blood: isolated platelets (A4) or heparinised whole blood (A9)
As to the kind of experiment: Human Whole Platelet Cyclooxygenase-1 assay (HWPX). The following applies: read-out: HWPX IC50 (parenthetical value). The class given is cell-based. The method in brief:
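Washed platelets from healthy-donor ACD blood were pre-incubated with compound for 10 min, then stimulated with calcium ionophore A23187 (8.8 μM final) for 10 min. Reaction stopped with cold 6 mM EDTA; thromboxane in supernatants quantified with a commercial kit.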

A further data set deals with T3, Human whole blood Cox-1 (Homo sapiens, UniProt P23219).
T3 construct: from tissue; host or cells: human blood: isolated platelets (A4) or heparinised whole blood (A9)
T3 sequence (P23219 24-599): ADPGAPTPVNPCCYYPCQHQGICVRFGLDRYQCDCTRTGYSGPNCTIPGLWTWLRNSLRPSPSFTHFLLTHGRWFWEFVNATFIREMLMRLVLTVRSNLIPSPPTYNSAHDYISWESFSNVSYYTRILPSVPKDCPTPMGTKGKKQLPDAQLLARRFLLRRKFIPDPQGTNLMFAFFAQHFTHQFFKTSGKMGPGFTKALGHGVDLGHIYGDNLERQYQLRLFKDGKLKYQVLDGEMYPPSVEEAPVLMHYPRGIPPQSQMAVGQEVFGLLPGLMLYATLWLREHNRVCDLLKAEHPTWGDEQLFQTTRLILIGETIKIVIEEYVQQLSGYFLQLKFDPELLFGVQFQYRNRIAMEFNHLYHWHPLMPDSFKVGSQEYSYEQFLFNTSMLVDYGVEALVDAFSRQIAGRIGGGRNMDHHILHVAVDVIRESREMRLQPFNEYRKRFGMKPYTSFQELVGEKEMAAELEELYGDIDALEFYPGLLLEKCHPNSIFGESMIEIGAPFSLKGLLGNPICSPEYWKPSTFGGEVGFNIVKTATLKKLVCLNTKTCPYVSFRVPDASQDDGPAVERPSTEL
As to the kind of experiment: Human whole blood assay Cyclooxygenase-1. It is filed as cell-based. As for the experimental part:
Heparin anticoagulated blood was incubated with drugs dissolved in DMSO. The samples are incubated at 37 degrees Celsius for 4.5 hours after which calcium ionophore at a final concentration of 30 μM was added and the mixture allowed to incubate for 30 minutes. The reaction was stopped with the addition of EGTA and cold methanol (50% final concentration). After 18 hours at −70 degrees Celsius, the plates were centrifuged and supernatants analyzed for TXB2.

Data set [4] has as its target T4, recombinant human Cox-1 (r-hu Cox1) (Homo sapiens, UniProt P23219).
T4 construct: made in house; host or cells: baculovirus/Sf9 insect cells (microsomes)
The data set is described as follows: Recombinant human PGHS-1 enzyme assay (RHUCX1). The following applies: 100 μM; read-out: RHUCX1 % Inh. at Dose. It is filed as biochemical. Summed up:
(§1)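 PGE2 formed with and without drug quantified by EIA against matrix-matched standards; percent inhibition relative to control mean, IC50 by linear regression.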

The target in data set [5] is T5, recombinant human Cox-2 (r-hu Cox-2) (Homo sapiens, UniProt P35354).
T5 construct: made in house; host or cells: baculovirus/Sf9 insect cells (microsomes)
T5 sequence (P35354 18-604): T1 sequence (P35354 18-604)
As to the kind of experiment: Recombinant human PGHS-2 enzyme assay (RHUCX2). The class given is biochemical. The following applies: read-out: RHUCX2 IC50 (parenthetical value). Summed up: as §1

Data set [6] deals with T6, human amnionic whole cell cyclooxygenase-2 (WISH cells) (Homo sapiens, UniProt P35354).
T6 construct: endogenous in cells; host or cells: human amnionic WISH cells, induced with IL-1beta
T6 sequence (P35354 18-604): T1 sequence (P35354 18-604)
The data set is described as follows: IL-1β induced PGE2 production in WISH cells. To be noted: read-out: Wish IC50 (parenthetical value). The class given is cell-based. Summed up: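 Confluent (80%) WISH cells were stimulated with 5 ng/ml IL-1β in serum-free Neuman-Tytell medium, with or without test compound in DMSO (0.01% v/v). PGE2 in the culture medium was measured by EIA against standards prepared in the same medium, read by optical density.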

Data set [7] concerns air pouch prostaglandin biosynthesis (Cox-2). The data set is described as follows: Carrageenan induced air pouch prostaglandin biosynthesis model (CAP). The class given is in vivo, rat. The method in brief: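 Male Sprague Dawley rats with dorsal air pouches (20 mL air day 0, 10 mL day 3) received 0.2% lambda carrageenan in saline into the pouch on day 7. Compounds dosed at 0.1 to 10 mg/kg 30 min before carrageenan; pouch lavaged 4 h later, prostaglandins measured by EIA. Percent inhibition versus control mean; ED50 by linear regression.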

SMILES strings stand for the structures.

T2 sequence (P23219 24-599): as above
T4 sequence (P23219 24-599): as above

Regarding `CC(C)(O)CCOc1c(-c2ccc(S(C)(=O)=O)cc2)cnn(-c2ccc(F)cc2)c1=O` [Example 451, 2-(4-Fluorophenyl)-4-(3-hydroxy-3-methyl-1-butoxy)-5-[4-(methylsulfonyl)phenyl]-3(2H)-pyridazinone], the melting point was in the range of 133 to 134 °C. In data set [1] (Rat IV (3mg/kg)), this molecule showed a half-life of 5.2 h. The AUC in [1] (rat) was 69 µM·h. Also, the concentration at 14 day in data set [1] (rat, oral, based on 10 mg/kg dosage, read-out: 14 day plasma micromolar concentration) worked out at 3.43 µM. The molecule also came in with an IC50 at Human whole blood Cox-2 of 470 nM. Besides, the “CPE ED30” value in data set [2] is recorded as “ED30 = 0.82”. Moreover, the IC50 in [3] amounted to 22400 nM. This molecule yielded an IC50 against Human whole blood Cox-1 of 29100 nM. In addition, in data set [4], the inhibition at 100 µM was found to be 10%. In addition, the IC50 in data set [5] is 470 nM. Besides, the IC50 in [6] stood at 150 nM. Further, the inhibition in vivo at 3 mg/kg in data set [7] (4 h, 3 mpk, rat, read-out: CAP % Inhib. @ 3 mpk) worked out at 80.5%. Moreover, it took a dose of 0.7 mg/kg to reach the 50% effect level in [7] (Rattus norvegicus) (ED50).

What is called half-life is the time needed for the level to fall by half in the phase considered. A low value points to fast loss. The AUC is the area under the concentration-time curve, a measure of exposure. A higher AUC goes with high exposure. What is called IC50 is the midpoint of a concentration-inhibition curve. As usually defined, the melting point is the temperature of the solid-liquid transition. For orientation: ED50 means the dose that gives a 50% effect, or the effect in half of the subjects. Read a low ED50 as an effect at a small dose.
